# Experimental data from ChEMBL document CHEMBL3638724, “Selective androgen receptor modulators” (2015).
# Target: T1, Androgen receptor (Homo sapiens, UniProt P10275)
# T1 sequence (P10275 whole entry): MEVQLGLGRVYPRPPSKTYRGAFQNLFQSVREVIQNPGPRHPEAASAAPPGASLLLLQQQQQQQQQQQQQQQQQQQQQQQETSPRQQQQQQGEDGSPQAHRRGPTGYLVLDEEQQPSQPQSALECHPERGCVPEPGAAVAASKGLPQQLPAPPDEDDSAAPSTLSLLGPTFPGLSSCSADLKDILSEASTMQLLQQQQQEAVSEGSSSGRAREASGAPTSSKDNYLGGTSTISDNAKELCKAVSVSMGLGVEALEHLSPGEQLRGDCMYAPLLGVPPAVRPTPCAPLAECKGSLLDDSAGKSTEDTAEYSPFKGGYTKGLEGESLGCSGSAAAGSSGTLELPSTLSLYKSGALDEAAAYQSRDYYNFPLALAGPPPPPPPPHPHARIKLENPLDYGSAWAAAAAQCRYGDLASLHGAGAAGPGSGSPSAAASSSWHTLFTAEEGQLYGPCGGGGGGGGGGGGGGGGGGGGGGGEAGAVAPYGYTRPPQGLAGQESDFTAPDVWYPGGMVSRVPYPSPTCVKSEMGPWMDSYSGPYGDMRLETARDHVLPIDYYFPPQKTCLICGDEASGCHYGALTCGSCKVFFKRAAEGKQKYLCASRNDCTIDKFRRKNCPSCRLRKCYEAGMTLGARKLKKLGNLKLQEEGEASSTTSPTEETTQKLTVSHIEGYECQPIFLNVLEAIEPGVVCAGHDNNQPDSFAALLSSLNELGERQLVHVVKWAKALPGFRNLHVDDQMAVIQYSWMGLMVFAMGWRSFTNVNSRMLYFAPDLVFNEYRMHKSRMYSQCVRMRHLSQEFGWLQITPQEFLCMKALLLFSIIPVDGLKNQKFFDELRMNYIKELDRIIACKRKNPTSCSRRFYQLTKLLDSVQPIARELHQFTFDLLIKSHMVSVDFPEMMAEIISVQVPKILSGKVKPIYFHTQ
# Experiment: The assay was performed as specified by the manufacturer (Invitrogen, Madison, Wis.). Briefly, 1 ul of 10 mM compound was added to 500 ul of AR screening buffer in a 1.5 ml eppendorf tube to make a 2x10-5M stock. 10-fold serial dilutions of the test compounds were prepared ranging in concentration from 10^-5M to 10-12M. Each dilution was added in triplicate to a black 384-microtiter plate. The test compounds will be diluted 2-fold in the final reaction. 2xAR-Fluormone complex was prepared with 2 nM Flourmone AL Green and 30 nM AR. 25 ul of 2x complex was aliquoted to each reaction well, such that the final reaction volume was 50 ul per well. The plate was sealed with a foil cover and incubated in the dark at room temperature.
row,SMILES,IC50 [nM]
1,O[C@@]1(C(F)(F)F)CCCc2c1[nH]c1cc(Cl)c(Cl)cc21,> 1000
2,Oc1cccc2c1[nH]c1ccc(Br)cc12,1420
3,N#Cc1ccc2[nH]c3c(O)cccc3c2c1,4600
4,OC1(C(F)(F)F)c2[nH]c3c(Cl)cc(F)cc3c2CCC1C(F)(F)F (stereo unspecified),> 10000
5,Oc1c(Br)ccc2c1[nH]c1cc(Cl)c(Cl)cc12,34
6,O[C@]1(C(F)(F)F)CCCc2c1[nH]c1cc(Cl)c(Cl)cc21,13
7,Oc1cccc2c1[nH]c1ccc(Cl)c(Cl)c12,15
8,OC1(C(F)(F)F)CCCc2c1[nH]c1c(Cl)cc(Cl)c(Cl)c21 (stereo unspecified),> 10000
9,O[C@]1(C(F)(F)F)CCCc2c1[nH]c1c(Cl)cc(Cl)cc21,20
10,OC1(C(F)(F)F)CCCc2c1[nH]c1cc(Cl)c(Cl)cc21 (stereo unspecified),1560
11,OC1(C(F)(F)F)CCCc2c1[nH]c1ccc(Cl)c(Cl)c21 (stereo unspecified),40200
